According to ChEMBL document CHEMBL1144686, “Solid-phase synthesis of new pyrrolobenzodiazepine-chalcone conjugates: DNA-binding affinity and anticancer activity” (2008):

Tests used:
DNA [1] = assay: Binding affinity to calf thymus DNA at pH 7.0 at 20 uM by thermal denaturation assay; format: nucleic-acid assay; settings: Bos taurus
DNA [2] = assay: Binding affinity to calf thymus DNA at pH 7.0 at 20 uM after 18 hrs by thermal denaturation assay; format: nucleic-acid assay; settings: Bos taurus
CCRF-CEM = assay: Growth inhibition of human CCRF-CEM cells; format: functional
HL-60 = assay: Growth inhibition of human HL60(TB) cells; format: functional
K562 = assay: Growth inhibition of human K562 cells; format: functional
MOLT-4 = assay: Growth inhibition of human MOLT4 cells; format: functional
RPMI-8226 = assay: Growth inhibition of human RPMI8226 cells; format: functional
SR = assay: Growth inhibition of human SR cells; format: functional
A549 = assay: Growth inhibition of human A549 cells; format: functional
EKVX = assay: Growth inhibition of human EKVX cells; format: functional
HOP-62 = assay: Growth inhibition of human HOP62 cells; format: functional
NCI-H322M = assay: Growth inhibition of human NCI-H322M cells; format: functional
NCI-H460 = assay: Growth inhibition of human NCI-H460 cells; format: functional
NCI-H522 = assay: Growth inhibition of human NCI-H522 cells; format: functional
COLO 205 = assay: Growth inhibition of human COLO 205 cells; format: functional
HCC 2998 = assay: Growth inhibition of human HCC2998 cells; format: functional
HCT-116 = assay: Growth inhibition of human HCT116 cells; format: functional
HCT-15 = assay: Growth inhibition of human HCT15 cells; format: functional
HT-29 = assay: Growth inhibition of human HT29 cells; format: functional
KM12 = assay: Growth inhibition of human KM12 cells; format: functional
SW-620 = assay: Growth inhibition of human SW620 cells; format: functional
SF-268 = assay: Growth inhibition of human SF268 cells; format: functional
SF-539 = assay: Growth inhibition of human SF539 cells; format: functional
SNB-19 = assay: Growth inhibition of human SNB19 cells; format: functional
SNB-75 = assay: Growth inhibition of human SNB75 cells; format: functional
U-251 = assay: Growth inhibition of human U251 cells; format: functional
LOX IMVI = assay: Growth inhibition of human LOX IMVI cells; format: functional
Malme-3M = assay: Growth inhibition of human MALME-3M cells; format: functional
M14 = assay: Growth inhibition of human M14 cells; format: functional
SK-MEL-2 = assay: Growth inhibition of human SK-MEL-2 cells; format: functional
SK-MEL-28 = assay: Growth inhibition of human SK-MEL-28 cells; format: functional
SK-MEL-5 = assay: Growth inhibition of human SK-MEL-5 cells; format: functional
UACC-257 = assay: Growth inhibition of human UACC257 cells; format: functional
UACC-62 = assay: Growth inhibition of human UACC62 cells; format: functional
IGROV-1 = assay: Growth inhibition of human IGROV1 cells; format: functional
OVCAR-3 = assay: Growth inhibition of human OVCAR-3 cells; format: functional
OVCAR-4 = assay: Growth inhibition of human OVCAR4 cells; format: functional
OVCAR-5 = assay: Growth inhibition of human OVCAR5 cells; format: functional
OVCAR-8 = assay: Growth inhibition of human OVCAR8 cells; format: functional
SK-OV-3 = assay: Growth inhibition of human SK-OV-3 cells; format: functional
786-0 = assay: Growth inhibition of human 786-0 cells; format: functional
ACHN = assay: Growth inhibition of human ACHN cells; format: functional
CAKI-1 = assay: Growth inhibition of human CAKI1 cells; format: functional
RXF 393 = assay: Growth inhibition of human RXF 393 cells; format: functional
SN12C = assay: Growth inhibition of human SN12C cells; format: functional
TK-10 = assay: Growth inhibition of human TK10 cells; format: functional
UO-31 = assay: Growth inhibition of human UO31 cells; format: functional
[3] = Growth inhibition of human HS 578T cells; format: functional
DU-145 = assay: Growth inhibition of human DU145 cells; format: functional
MCF7 = assay: Growth inhibition of human MCF7 cells; format: functional
NCI/ADR-RES = assay: Growth inhibition of human NCI/ADR-RES cells; format: functional
[4] = Growth inhibition of human 231/ATCC cells; format: functional
MDA-MB-435 = assay: Growth inhibition of human MDA-MB-435 cells; format: functional
BT-549 = assay: Growth inhibition of human BT549 cells; format: functional
T47D = assay: Growth inhibition of human T47D cells; format: functional
MDA-MB-468 = assay: Growth inhibition of human MDA-MB-468 cells; format: functional
HOP-92 = assay: Growth inhibition of human HOP92 cells; format: functional
NCI-H226 = assay: Growth inhibition of human NCI-H226 cells; format: functional
NCI-H23 = assay: Growth inhibition of human NCI-H23 cells; format: functional
L1210 = assay: Cytotoxicity against mouse L1210 cells; format: functional; settings: read-out: LC50 (the source's name)
PC-6 = assay: Cytotoxicity against human PC6 cells; format: functional; settings: read-out: LD50 (the source's name)

**Q.** For `COc1cc(/C=C/C(=O)c2ccccc2O)ccc1OCCCCCOc1cc2c(cc1OC)C(=O)N1CCC[C@H]1C(=O)N2`, which deltaTm (DNA [1]) is on record?
**A.** 7.1 °C

**Q.** What about the deltaTm (DNA [2]) of the same molecule?
**A.** 9 °C

**Q.** Which deltaTm (DNA [1]) does the source give for `COc1cc(/C=C/C(=O)c2ccccc2O)ccc1OCCCOc1cc2c(cc1OC)C(=O)N1CCC[C@H]1C=N2` here?
**A.** 5 °C

**Q.** What about the deltaTm (DNA [2]) of the same molecule?
**A.** 8.1 °C

**Q.** And the GI50 (CCRF-CEM)?
**A.** 21 nM

**Q.** And the GI50 (HL-60)?
**A.** 17 nM

**Q.** And the GI50 (K562)?
**A.** 26 nM

**Q.** What about the GI50 (MOLT-4) of the same molecule?
**A.** 17 nM

**Q.** What about the GI50 (RPMI-8226) of the same molecule?
**A.** 25 nM

**Q.** What about the GI50 (SR) of the same molecule?
**A.** 12 nM

**Q.** What about the GI50 (A549) of the same molecule?
**A.** 31 nM

**Q.** What about the GI50 (EKVX) of the same molecule?
**A.** 204 nM

**Q.** What about the GI50 (HOP-62) of the same molecule?
**A.** 39 nM

**Q.** And the GI50 (NCI-H322M)?
**A.** 307 nM

**Q.** What about the GI50 (NCI-H460) of the same molecule?
**A.** 34 nM

**Q.** And the GI50 (NCI-H522)?
**A.** 26 nM

**Q.** And the GI50 (COLO 205)?
**A.** 27 nM

**Q.** And the GI50 (HCC 2998)?
**A.** 138 nM

**Q.** And the GI50 (HCT-116)?
**A.** 33 nM

**Q.** And the GI50 (HCT-15)?
**A.** 247 nM

**Q.** What about the GI50 (HT-29) of the same molecule?
**A.** 30 nM

**Q.** And the GI50 (KM12)?
**A.** 18 nM

**Q.** And the GI50 (SW-620)?
**A.** 19 nM

**Q.** What about the GI50 (SF-268) of the same molecule?
**A.** 24 nM

**Q.** What about the GI50 (SF-539) of the same molecule?
**A.** 28 nM

**Q.** And the GI50 (SNB-19)?
**A.** 29 nM

**Q.** And the GI50 (SNB-75)?
**A.** 36 nM

**Q.** And the GI50 (U-251)?
**A.** 22 nM

**Q.** And the GI50 (LOX IMVI)?
**A.** 18 nM

**Q.** What about the GI50 (Malme-3M) of the same molecule?
**A.** 37 nM

**Q.** And the GI50 (M14)?
**A.** 46 nM

**Q.** And the GI50 (SK-MEL-2)?
**A.** 67 nM

**Q.** What about the GI50 (SK-MEL-28) of the same molecule?
**A.** 20 nM

**Q.** What about the GI50 (SK-MEL-5) of the same molecule?
**A.** 24 nM

**Q.** And the GI50 (UACC-257)?
**A.** 112 nM

**Q.** What about the GI50 (UACC-62) of the same molecule?
**A.** 21 nM

**Q.** What about the GI50 (IGROV-1) of the same molecule?
**A.** 18 nM

**Q.** What about the GI50 (OVCAR-3) of the same molecule?
**A.** 21 nM

**Q.** And the GI50 (OVCAR-4)?
**A.** 61 nM

**Q.** And the GI50 (OVCAR-5)?
**A.** 25 nM

**Q.** What about the GI50 (OVCAR-8) of the same molecule?
**A.** 36 nM

**Q.** And the GI50 (SK-OV-3)?
**A.** 406 nM

**Q.** What about the GI50 (786-0) of the same molecule?
**A.** 25 nM

**Q.** And the GI50 (ACHN)?
**A.** 47 nM

**Q.** What about the GI50 (CAKI-1) of the same molecule?
**A.** 25 nM

**Q.** And the GI50 (RXF 393)?
**A.** 20 nM

**Q.** And the GI50 (SN12C)?
**A.** 28 nM

**Q.** And the GI50 (TK-10)?
**A.** 41 nM

**Q.** What about the GI50 (UO-31) of the same molecule?
**A.** 105 nM

**Q.** What about the GI50 [3] of the same molecule?
**A.** 23 nM

**Q.** What about the GI50 (DU-145) of the same molecule?
**A.** 25 nM

**Q.** What about the GI50 (MCF7) of the same molecule?
**A.** 32 nM

**Q.** What about the GI50 (NCI/ADR-RES) of the same molecule?
**A.** 308 nM

**Q.** And the GI50 [4]?
**A.** 26 nM

**Q.** What about the GI50 (MDA-MB-435) of the same molecule?
**A.** 19 nM

**Q.** And the GI50 (BT-549)?
**A.** 17 nM

**Q.** What about the GI50 (T47D) of the same molecule?
**A.** 29 nM

**Q.** And the GI50 (MDA-MB-468)?
**A.** 16 nM

**Q.** What about the GI50 (HOP-92) of the same molecule?
**A.** 44 nM

**Q.** And the GI50 (NCI-H226)?
**A.** 138 nM

**Q.** What about the GI50 (NCI-H23) of the same molecule?
**A.** 39 nM

**Q.** For `COc1cc(/C=C/C(=O)c2ccccc2O)ccc1OCCCOc1cc2c(cc1OC)C(=O)N1CCC[C@H]1C(=O)N2`, which deltaTm (DNA [1]) is on record?
**A.** 2 °C

**Q.** What about the deltaTm (DNA [2]) of the same molecule?
**A.** 3.5 °C

**Q.** Which results are given for `COc1cc(/C=C/C(=O)c2ccccc2O)ccc1OCCCCCOc1cc2c(cc1OC)C(=O)N1CCC[C@H]1C=N2`?
**A.** deltaTm (DNA [1]): 3.1 °C; deltaTm (DNA [2]): 5 °C

**Q.** What does the source list for `COc1cc(/C=C/C(=O)c2ccccc2O)ccc1OCCCCOc1cc2c(cc1OC)C(=O)N1CCC[C@H]1C=N2`?
**A.** deltaTm (DNA [1]): 1.7 °C; deltaTm (DNA [2]): 2.1 °C

**Q.** For `COc1cc2c(cc1O)N=C[C@@H]1CCCN1C2=O`, which deltaTm (DNA [1]) is on record?
**A.** 0.3 °C

**Q.** What about the deltaTm (DNA [2]) of the same molecule?
**A.** 0.7 °C

**Q.** And the CC50 (L1210)?
**A.** 380 nM

**Q.** What about the CC50 (PC-6) of the same molecule?
**A.** 330 nM

**Q.** For `COc1cc(/C=C/C(=O)c2ccccc2O)ccc1OCCCCOc1cc2c(cc1OC)C(=O)N1CCC[C@H]1C(=O)N2`, which deltaTm (DNA [1]) is on record?
**A.** 1 °C

**Q.** And the deltaTm (DNA [2])?
**A.** 1.9 °C
